# Test results reported in article PMC8113213, “Physiologically based kinetic modelling based prediction of in vivo rat and human acetylcholinesterase (AChE) inhibition upon exposure to diazinon” (Archives of Toxicology, 2021).
# Like-named read-outs stand apart in the source and are kept apart here.
# What was measured:
# [1] = human; ref Poklis et al. 1980; cited from earlier work
# [2] = type: in vitro ADME; settings: intestinal microsomes, data not shown
# Procedure: The physiological parameters for rat and human were obtained from Brown et al. ([1997]) as well as Gearhart et al. ([1990]), and are summarised in Table 1. […] The kinetic parameters for biotransformation of DZN in rat and human were obtained by conducting in vitro liver microsomal/plasma incubations as described in the section “In vitro metabolic incubations for deriving kinetic parameters”. […] The first-pass metabolism of DZN by the intestine was not taken into account in the current model because the metabolic conversion in the intestine derived from the conversion in incubations with intestinal microsomes upon scaling to the whole organ, appeared less than 5% of that obtained in a similar way for the liver (data not shown). […] To scale the in vitro Vmax values to the in vivo situation, the following scaling factors were used; 35 mg microsomal protein/g liver for rat hepatic metabolism (Medinsky et al. [1994]), 32 mg microsomal protein/g liver for human hepatic metabolism (Barter et al. [2007]), 77 mg plasma protein/ml plasma (total plasma protein concentration) for human plasma metabolism, and 60 mg plasma protein/ml plasma (total plasma protein concentration) for rat plasma metabolism. Plasma volume in rat and human were assumed as 55% of their corresponding blood volume (O'Neil [1999]). The Km values determined in vitro were assumed to be equal to in vivo Km values. […]
# [3] = test system: CYP450; settings: ref Kappers et al. 2001; cited from earlier work
# [4] = test system: natural human RBC AChE; settings: ref Fakhri-Bafghi et al. 2016; cited from earlier work
# [5] = human, cited from earlier work
# [6] = test system: RBC AChE; settings: ref USEPA 2016, cited from earlier work; for Reported BMDL10 from EPA (pups): RBC AChE inhibition in female rat pups (PND11)
# [7] = test system: CYP450; assay: in vitro; type: in vitro ADME, rat; settings: for Km: rat
# Procedure: (§1) The in vitro incubations for investigating CYP450-mediated biotransformation of DZN were performed using rat and human liver microsomes based on the method described by Sams et al. ([2004]) and Smith et al. ([2011]) with some modifications. Preliminary studies were carried out to optimize both incubation time and microsomal protein concentration, to define conditions at which metabolism was linear with respect to time and the amount of microsomal protein (data not shown) to be used for further kinetic studies. The final incubations contained 50 mM Tris–HCl (pH 7.4), 5 mM MgCl2, 1 mM EDTA (as an A-esterase PON1 inhibitor) (Bizoń and Milnerowicz [2018]), 50 µM iso-OMPA (as a B-esterases inhibitor) (Lane et al. [2006]), 1 mM NADPH, and DZN at final concentrations of 1, 2.5, 5, 10, 25, 50, 100 and 250 µM (added from 100 times concentrated stock solutions in methanol). […] Addition of esterase inhibitors EDTA and iso-OMPA has been commonly applied when studying CYP450-mediated conversion of organophosphate (OP) pesticides in liver microsomal incubations for determining kinetic parameters for their CYP450-mediated pathways (Buratti et al. [2005]; Dadson et al. [2013]; Ellison et al. [2012]; Foxenberg et al. [2007]; Poet et al. [2003]; Smith et al. [2011]). Based on previous studies, CYP450-mediated activities are not adversely affected by the addition of these inhibitors (1 mM EDTA and 50 µM iso-OMPA) to the microsomal incubations (Buratti et al. [2003]; Rasmussen [2012]). After 1 min preincubation in a 37 °C water bath, 2.5 µl of human or rat liver microsomes (final concentration 0.25 mg microsomal protein/ml) were added to initiate the reaction. The total incubation mixture was 200 µl. Control incubations were carried out by replacing NADPH with buffer. The reaction was terminated after 2.5 min by adding 200 µl ice-cold ACN. After the incubation, samples were centrifuged at 16000 g (4℃) for 5 min, and supernatants of rat samples were further diluted 2 × in a mixture of ACN and 50 mM Tris–HCl (pH 7.4) (ratio 1:1, v/v). At the end, both diluted rat sample supernatants and undiluted human sample supernatants were analysed by LC–MS/MS for quantification of metabolite formation.
# (§2) The chromatographic separations were conducted on a Kinetex® 1.7 µm Phenyl-Hexyl 100 Å LC column (100 × 2.1 mm). The injection volume was 1 µl at a flow rate of 0.3 ml/min. The temperature of the column was kept at 40℃. The mobile phase A consisted of ultrapure water with 0.1% (v/v) formic acid, and mobile phase B consisted of acetonitrile (ACN) with 0.1% (v/v) formic acid. […] The instrument was used in positive mode with multiple reaction monitoring (MRM). The optimized acquisition parameters for DZN, DZO and the metabolite IMHP are listed in Supplementary data I.
# The calculation was done using GraphPad Prism 5 for Windows, version 5.04 (GraphPad software, San Diego California USA).
# [8] = test system: CYP450; assay: in vitro; type: in vitro ADME, human; settings: for Km: human
# Procedure: as §1
# as §2, with “I. […]” for “I.”
# [9] = rat versus human liver microsomes
smiles,measurement,setting,value
"CCOP(=S)(OCC)Oc1cc(C)nc(C(C)C)n1 [DZN, O,O-diethyl O-2-isopropyl-6-methylpyrimidin-4-yl phosphorothioate]",toxic dose level reported,[1],293 mg/kg bw
same,"metabolic conversion in the intestine scaled to the whole organ, relative to that for the liver",[2],less than 5%
same,difference in DZO formation from DZN between 15 human liver samples,[3],6- to 59 fold
same,IC50,[4],24.4 µM
same,fractional absorption (fa),"[5]; oral, ref Garfitt et al. 2002",0.66
same,first-order rate constant for absorption from the intestine into the liver (KaI),[5]; ref Poet et al. 2004,0.59 h⁻¹
same,first-order rate constant for absorption from the stomach into the liver (KaS),[5]; ref Poet et al. 2004,0.32 h⁻¹
same,first-order rate constant for transfer from the stomach into the intestine (KsI),[5]; ref Poet et al. 2004,0.48 h⁻¹
same,Reported BMDL10 from EPA (pups),[6],3 mg/kg bw
same,Reported BMDL10 from EPA (pups),[6]; listed as Diazinon,3.0 mg/kg bw
same,BMDL10 for inhibition of RBC AChE,"[6]; male adult rats, oral DZN",4.804 mg/kg bw/day
same,Reported BMDL10 from EPA (adult rat),[6],4.8 mg/kg bw
same,Vmax DZN to DZO,[7]; rat liver microsomes,0.288 nmol/min/mg microsomal protein
same,Vmax DZN to IMHP,[7]; rat liver microsomes,1.098 nmol/min/mg microsomal protein
same,"CYP450-mediated detoxification, more efficient in rat compared to human",[7]; [9],15 fold
same,lower Km for CYP450-mediated bioactivation in rat than in human,[7]; [9],12.6 fold
same,lower Km for CYP450-mediated detoxification in rat than in human,[7]; [9],9.3 fold
same,"unscaled catalytic efficiency of CYP450-mediated bioactivation, higher in rat than human",[7]; [9],20 fold
same,Km,"[7]; pH 7.4, Km DZN to DZO, rat liver microsomes",4.75 µM
same,Km,"[7]; pH 7.4, rat liver microsomes, read-out: Km DZN to IMHP",1.76 µM
same,Vmax DZN to DZO,[8]; human liver microsomes,0.187 nmol/min/mg microsomal protein
same,Vmax DZN to IMHP,[8]; human liver microsomes,0.665 nmol/min/mg microsomal protein
same,Km,"[8]; pH 7.4, Km DZN to DZO, human liver microsomes",59.6 µM
same,Km,"[8]; pH 7.4, human liver microsomes, read-out: Km DZN to IMHP",16.3 µM
